Read-outs that look alike come from different tables or passages of the source.
Legend:
[1] = Tolerability (MTD) of Compound A and bortezomib in nude mice; format: in vivo
Experimental: (§1) Finally, tolerability and efficacy studies were conducted in which HT29 tumors maintained by serial passage were implanted subcutaneously in 9-10 weeks old female athymic no/nu mice (Harlan) Twenty-one (21) days post-implantation, when tumors reached 63-196 mm^3, mice were randomized into cohorts of […] with mean tumor volumes ˜100 mm^3. […] Drugs were delivered on the indicated schedules at 10 ml/kg by i.p. injection, except paclitaxel, which was administered by intravenous injection. Tumors were measured twice weekly and mice euthanized when tumor reached 1000 mm^3 or at day 59. Mice were weighed twice weekly. Acceptable toxicity was defined as body weight loss of <20% and ≦1 treatment-related death among ten treated animals. Toxicity exceeding these levels was considered above MTD.

SKOV3 = assay: Cellular activity, SKOV3; format: cell-based
HT29 = assay: Cellular activity, HT29; format: cell-based
[2] = Preclinical toxicology in rats, 1, 6 and 24-hr IV infusion; format: in vivo, rat; settings: for dose at which mortality occurred: 24-hr infusion
Text: Transient drug-related findings occurred at all doses, but severity and incidence were generally dose proportional and dependent on the duration of infusion. Most consistent findings included hematopoeitic toxicity (depletion in bone marrow and thymus and associated hematologic changes) and enteropathy (necrosis/regeneration of intestinal crypt epithelium and villus atrophy and body weight loss or decrease in body weight gain). Microscopic changes (necrosis, apoptosis and/or cellular degeneration) were also evident in liver, mammary glands, testes and epididymus, and at ≧36 mg/m^2, increased mitotic figures in many tissues. All drug-related toxicities completely reversed 2 weeks after dosing, with the exception of degenerative testicular changes at ≧18 mg/m^2. In the 1 to 6-hr infusion studies, there was no mortality, however based on the severity of hematopoietic and gastrointestinal toxicities, the MTD was 72 mg/m^2. When the infusion was increased to 24-hr, mortality occurred at 18 mg/m^2 after a single dose and at 12 mg/m^2 after repeated weekly dosing.

[3] = test system: MX-1 mammary carcinoma xenograft; settings: i.p. q4d×3
Colo205 = assay: Cellular activity, Colo205; format: cell-based
P388 (murine) = assay: Cellular activity, P388; format: cell-based
[4] = test system: rat, dog, rabbit and human blood; assay: In vitro hemolysis on mixing with blood
Text: Hemolysis was not observed in any of the in vivo studies, nor has it been observed in the ongoing Phase I trial.

[5] = test system: HT 29 chemo-refractory colon carcinoma xenograft
[6] = test system: murine P388 lymphocytic leukaemia; assay: P388 lymphocytic leukaemia model, dosing schedule study; format: in vivo
Text: More frequent administration of the compound was poorly tolerated and dictated a lower total dose. […] At doses equivalent to either ¼ or ½ the MTD, % ILS and NCK were reduced.

[7] = In vivo rat micronucleus study; settings: all doses tested (≧3 mg/m^2 administered daily×2)
Text: (§2) Positive findings are consistent with the expected pharmacology of Compound A.

MX1 = assay: Cellular activity, MX1; format: cell-based
[8] = test system: H69 human tumor xenograft
[9] = test system: A2780 human tumor xenograft
MV522 = assay: Cellular activity, MV522; format: cell-based
Mouse KSP = Mouse KSP (Mus musculus, UniProt Q6P9P6); assay: Kinesin affinity, mouse KSP; format: binding
Chain of Mouse KSP (Q6P9P6 whole entry): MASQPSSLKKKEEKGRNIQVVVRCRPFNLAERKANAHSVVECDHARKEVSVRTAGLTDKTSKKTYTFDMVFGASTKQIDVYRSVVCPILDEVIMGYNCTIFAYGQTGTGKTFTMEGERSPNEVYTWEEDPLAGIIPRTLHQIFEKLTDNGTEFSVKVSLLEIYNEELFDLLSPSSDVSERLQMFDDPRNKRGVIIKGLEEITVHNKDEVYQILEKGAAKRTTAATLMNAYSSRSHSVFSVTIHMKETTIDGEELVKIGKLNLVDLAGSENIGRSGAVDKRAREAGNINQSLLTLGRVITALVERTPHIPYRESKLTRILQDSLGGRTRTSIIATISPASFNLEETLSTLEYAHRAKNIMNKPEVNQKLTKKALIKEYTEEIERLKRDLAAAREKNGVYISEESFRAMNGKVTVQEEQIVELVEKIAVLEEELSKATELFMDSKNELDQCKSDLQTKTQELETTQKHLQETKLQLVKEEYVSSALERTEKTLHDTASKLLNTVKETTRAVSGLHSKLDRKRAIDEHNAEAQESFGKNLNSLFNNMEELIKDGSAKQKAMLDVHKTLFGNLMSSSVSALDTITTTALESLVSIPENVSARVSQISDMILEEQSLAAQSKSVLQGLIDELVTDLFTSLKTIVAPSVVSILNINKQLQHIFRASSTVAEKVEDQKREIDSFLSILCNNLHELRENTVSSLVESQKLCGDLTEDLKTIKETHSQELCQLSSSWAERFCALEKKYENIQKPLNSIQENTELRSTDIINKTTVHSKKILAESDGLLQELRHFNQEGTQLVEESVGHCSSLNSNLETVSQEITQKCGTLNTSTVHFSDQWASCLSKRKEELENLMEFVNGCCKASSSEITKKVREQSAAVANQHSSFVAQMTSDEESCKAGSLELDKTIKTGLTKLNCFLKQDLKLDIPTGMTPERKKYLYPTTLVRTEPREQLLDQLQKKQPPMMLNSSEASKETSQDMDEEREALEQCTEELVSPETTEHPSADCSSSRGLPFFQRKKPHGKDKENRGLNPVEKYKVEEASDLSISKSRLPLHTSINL

Other kinesins = assay: Kinesin affinity, other kinesins; format: binding
[10] = test system: Colo205 colon carcinoma xenograft; assay: Colo205 xenograft tumor model; format: in vivo, nude mice
[11] = target: human P-glycoprotein (Pgp) (Homo sapiens, UniProt P08183); settings: MDCKII-MDR1 cells
Chain of human P-glycoprotein (Pgp) (P08183 whole entry): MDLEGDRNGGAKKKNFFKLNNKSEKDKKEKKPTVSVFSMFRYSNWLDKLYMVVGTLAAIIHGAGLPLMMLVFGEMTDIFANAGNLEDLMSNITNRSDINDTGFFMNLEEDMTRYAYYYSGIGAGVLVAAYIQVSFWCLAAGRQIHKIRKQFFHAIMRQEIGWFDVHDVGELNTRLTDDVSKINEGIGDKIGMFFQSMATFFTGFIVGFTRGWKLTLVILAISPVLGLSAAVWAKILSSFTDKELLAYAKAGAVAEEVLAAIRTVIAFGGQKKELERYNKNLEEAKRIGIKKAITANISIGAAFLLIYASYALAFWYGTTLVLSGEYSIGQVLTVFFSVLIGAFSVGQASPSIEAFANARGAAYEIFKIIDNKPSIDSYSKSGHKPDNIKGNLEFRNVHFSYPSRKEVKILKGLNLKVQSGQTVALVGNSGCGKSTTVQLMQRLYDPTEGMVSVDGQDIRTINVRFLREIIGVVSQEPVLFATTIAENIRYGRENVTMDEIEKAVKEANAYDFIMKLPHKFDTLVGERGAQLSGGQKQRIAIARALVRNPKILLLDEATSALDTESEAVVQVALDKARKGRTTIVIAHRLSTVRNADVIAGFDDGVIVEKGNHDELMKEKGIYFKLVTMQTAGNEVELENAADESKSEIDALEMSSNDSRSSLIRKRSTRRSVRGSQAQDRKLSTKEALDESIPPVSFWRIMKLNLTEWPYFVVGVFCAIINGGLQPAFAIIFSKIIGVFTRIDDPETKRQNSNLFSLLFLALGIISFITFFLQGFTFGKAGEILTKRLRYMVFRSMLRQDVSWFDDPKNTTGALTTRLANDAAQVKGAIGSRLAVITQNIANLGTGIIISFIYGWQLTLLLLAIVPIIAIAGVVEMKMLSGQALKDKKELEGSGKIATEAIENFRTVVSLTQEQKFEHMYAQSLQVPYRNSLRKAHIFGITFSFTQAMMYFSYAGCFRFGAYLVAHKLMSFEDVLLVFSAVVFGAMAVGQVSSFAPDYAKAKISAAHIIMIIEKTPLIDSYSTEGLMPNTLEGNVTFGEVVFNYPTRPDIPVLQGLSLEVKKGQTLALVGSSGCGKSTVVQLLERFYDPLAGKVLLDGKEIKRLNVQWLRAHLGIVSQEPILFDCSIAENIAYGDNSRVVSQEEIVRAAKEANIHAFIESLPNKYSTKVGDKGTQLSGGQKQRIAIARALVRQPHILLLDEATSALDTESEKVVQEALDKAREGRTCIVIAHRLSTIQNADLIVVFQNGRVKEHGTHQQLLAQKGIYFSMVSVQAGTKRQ

mouse lymphoma = assay: Mouse lymphoma mutagenicity assay; format: cell-based; settings: in vitro mouse lymphoma mutagenicity assay
Text: as §2

[12] = test system: broad spectrum of tumor cell lines; assay: Cytotoxic activity in tumor cell lines; format: cell-based
[13] = test system: MV 522 human lung carcinoma xenograft; assay: MV 522 xenograft tumor model; format: in vivo, nude mice; settings: i.p. q4d×3, up to the MTD
In vitro Ames test = format: cell-based
Text: as §2

HT29 tumor xenografts = assay: HT29 tumor xenograft efficacy, Compound A and bortezomib alone and combined; format: in vivo, female athymic nu/nu mice; settings: for TGD, second arm, single agents: 1.5 mg/kg bortezomib and 10 mg/kg Compound A as printed; for mean tumor growth delay (TGD): 1.5 mg/kg bortezomib, 10 mg/kg Compound A, q4d×3; for mean time to endpoint (TTE), tumor volume=1000 mm^3: single agents (at MTD for bortezomib and Compound A)
Experimental: as §1
(§3) Anti-tumor activity of sequenced (24 hour offset, q4d×3) and simultaneous administration was explored in HT29 tumor xenografts.
as §3

[14] = test system: MCF-7 human tumor xenograft
[15] = test system: OVCAR-3 human tumor xenograft
[16] = Dose-escalation Phase I study in patients with solid tumors; format: in vivo
Text: In this study, the ANC generally achieved a nadir at Day 7-8 and had completely recovered by Day 15.

[17] = Preclinical toxicology in dogs, 1-hr IV infusion; format: in vivo, dog
Experimental: Doses up to 40 mg/m^2 were tested in a single dose-range finding study and doses of 5, 10 and 20 mg/m^2 were tested in a 3-week (once weekly) toxicology study. Drug-related findings occurred at all dose levels, but severity and incidence were generally dose-proportional. […] In dogs given ≧10 mg/m^2, clinical observations of gastrointestinal (GI) disturbances included vomiting/retching, fecal abnormalities, hypoactivity, anorexia and body weight losses. […] Based on these findings, the highest non-severely toxic dose in the dog is 10 mg/m^2.

[18] = test system: MDA-MB-231 human tumor xenograft
[19] = test system: SK-MES human tumor xenograft
[20] = target: P-glycoprotein (Pgp, MDR1) (Homo sapiens, UniProt P08183); assay: in vitro
Chain of P-glycoprotein (Pgp, MDR1) (P08183 whole entry, the tested form may be a part): as the sequence (P08183 whole entry) above

[21] = rat, 1 to 6-hr infusion studies
[22] = i.p., q4d×3 schedule, at the MTD
[23] = Q21 days, patients with solid tumors

Cc1ccc(C(=O)N(CCCN)[C@@H](c2oc3cc(Cl)ccc3c(=O)c2Cc2ccccc2)C(C)C)cc1 [Compound A, N-(3-Aminopropyl)-N—[(R)-1-3-benzyl-7-chloro-4-oxo-4H-chromen-2-yl-2-methyl-propyl]-4-methyl-benzamide]
single agent MTD (q4d×3) ([1]; i.p.): about 10 mg/kg | IC50 (SKOV3): 0.2 nM | IC50 (HT29): 1.9 nM | dose with degenerative testicular changes not reversed 2 weeks after dosing ([2]; rat IV infusion): ≥ 18 mg/m^2 | dose with increased mitotic figures in many tissues ([2]; rat IV infusion): ≥ 36 mg/m^2 | MTD [2, 21]: 72 mg/m^2 | mortality [2, 21]: no mortality | dose at which mortality occurred ([2]; rat, after a single dose): 18 mg/m^2 | dose at which mortality occurred ([2]; rat, after repeated weekly dosing): 12 mg/m^2 | tumor regressions [3]: did not induce any tumor regressions | tumor growth delay (T-C1000) ([3]; time differential to tumor volume 1000 mm^3): 10 days | IC50 (Colo205): 0.07 nM | IC50 (P388 (murine)): 14.4 nM | hemolysis ([4]; at 0.3 mg/mL): no hemolysis was observed | hemolytic concentration ([4]; mixed with rat, dog, rabbit and human blood): ≥ 0.6 mg/mL | single agent activity against advanced xenograft ([5]; HT-29): tumor growth delay | tumor growth delay (T-C1000) ([5]; i.p. q4d×3, time differential to tumor volume 1000 mm^3): 25 days | % ILS and NCK ([6]; doses equivalent to ¼ or ½ the MTD): reduced | mean (±SEM) % increase in lifespan (ILS) [6, 22]: 156±10% | net cell kill (NCK) [6, 22]: 2.9±0.5 logs | micronucleus result [7]: positive results as an aneugen | IC50 (MX1): 0.06 nM | single agent activity against advanced xenograft [8]: complete and partial regressions | single agent activity against advanced xenograft [9]: tumor growth delay | IC50 (MV522): 1.7 nM | Ki (Mouse KSP): 0.12 nM | Ki (Other kinesins): > 70000 nM | single agent activity against advanced xenograft ([10]; Colo205): complete regressions | tumor regression ([10]; i.p. q4d×3, at the MTD): complete tumor regressions | tumor regression ([10]; i.p. q4d×3, doses as low as 25% of the MTD, majority of animals): Partial tumor regressions | Pgp substrate [11]: is a Pgp substrate | average P7.4 [11]: 2.5 ×10⁻⁶ cm/s | passive membrane permeability [11]: < 5 ×10⁻⁶ cm/s | genotoxic activity (mouse lymphoma): did not show evidence of genotoxic activity | cytotoxic activity [12]: less than 2 nM | tumor response [13]: refractory | genotoxic activity (In vitro Ames test): did not show evidence of genotoxic activity | TGD, second arm, single agents (HT29 tumor xenografts): 12 days | mean tumor growth delay (TGD) (HT29 tumor xenografts): 24 days | mean time to endpoint (TTE), tumor volume=1000 mm^3 (HT29 tumor xenografts): did not differ significantly from untreated control animals | single agent activity against advanced xenograft [14]: complete and partial regressions | single agent activity against advanced xenograft [15]: complete and partial regressions | patients with dose-limiting toxicity (Grade 3 hypophosphatemia, not thought to be drug-related) ([16]; 4 mg/m^2): 1 of the first 6 patients | day of ANC nadir ([16]; Phase I, Q21 days): 7 to 8 days | day of ANC recovery ([16]; Phase I, Q21 days): ≤ 15 days | neurotoxicity, mucositis, thrombocytopenia, alopecia, and nausea vomiting requiring pre-medication ([16]; Phase I, one hour infusion every 21 days): have not been observed | most commonly occurring dose-limiting toxicity [16, 23]: Prolonged (≧5 days), reversible neutropenia | presumptive maximum tolerated dose (MTD) [16, 23]: 4 mg/m^2 | dose eliciting Grade 4 neutropenia lasting ≧5 days ([16]; single one hour infusion every 21 days): ≥ 5 mg/m^2 | animals euthanized in moribund condition ([17]; Day 4 after a single 1-hr IV infusion of 20 mg/m^2): One of 10 dogs | dose with clinical observations of gastrointestinal (GI) disturbances ([17]; dog, 1-hr IV infusion): ≥ 10 mg/m^2 | highest non-severely toxic dose ([17]; dog, 1-hr IV infusion, once weekly for 3 weeks): 10 mg/m^2 | dose with testicular germinal epithelial abnormalities ([17]; male dogs): 20 mg/m^2 | single agent activity against advanced xenograft [18]: tumor growth delay | single agent activity against advanced xenograft [19]: complete and partial regressions

COc1cc2c(cc1OC)CN(CCc1ccc(NC(=O)c3cccc4c(=O)c5cccc(OC)c5[nH]c34)cc1)CC2 [GF120918A]
activity at 2 μM [20]: ~30%

CC(C)C[C@H](NC(=O)[C@H](Cc1ccccc1)NC(=O)c1cnccn1)B(O)O [bortezomib]
MTD ([1]; female, athymic nu/nu (nude), mouse, in vivo, ip, read-out: single agent MTD (q4d×3)): ~1.5 mg/kg | TGD, second arm, single agents (HT29 tumor xenografts): 9 days | mean tumor growth delay (TGD) (HT29 tumor xenografts): 9 days | mean time to endpoint (TTE), tumor volume=1000 mm^3 (HT29 tumor xenografts): did not differ significantly from untreated control animals

Cc1ccc(C(=O)N(CCCN)[C@@H](c2nc3cc(Cl)ccc3c(=O)n2Cc2ccccc2)C(C)C)cc1 [ispinesib, reference compound]
IC50 (SKOV3; Homo sapiens, SK-OV-3): 1 nM | IC50 (HT29; Homo sapiens, HT-29): 1.2 nM | IC50 (Colo205; Homo sapiens, COLO 205): 0.18 nM | IC50 (P388 (murine); Mus musculus, P388): 19.7 nM | IC50 (MX1; Homo sapiens, MX1): 2.8 nM | IC50 (MV522; MV522): 9.7 nM | Ki (Mouse KSP): 0.76 nM | Ki (Other kinesins): > 70000 nM

CC(=O)O[C@H]1C(=O)[C@@]2(C)[C@H]([C@H](OC(=O)c3ccccc3)[C@]3(O)C[C@H](OC(=O)[C@H](O)[C@@H](NC(=O)c4ccccc4)c4ccccc4)C(C)=C1C3(C)C)[C@]1(OC(C)=O)CO[C@@H]1C[C@@H]2O [paclitaxel]
mean time to endpoint (TTE), tumor volume=1000 mm^3 (HT29 tumor xenografts): 59 days
